Values after ≈ are worked out from the molar mass of the structure shown. Active and inactive are the calls of the source. The calls are words filed in the database; no cut-off is given here.
Legend:
Pseudomonas aeruginosa [1] = test: Antibacterial activity against Pseudomonas aeruginosa ATCC 15442 clinical isolates after 18 to 20 hrs in aerobic condition by CLSI-based broth microdilution assay; assay type: functional
Pseudomonas aeruginosa [2] = test: microbe, parasite or virus in culture; settings: ATCC 25619
Description: Antibacterial activity against Pseudomonas aeruginosa ATCC 25619 clinical isolates after 18 to 20 hrs in aerobic condition by CLSI-based broth microdilution assay

Salmonella enteritidis [3] = test: Antibacterial activity against Salmonella enteritidis ATCC 13076 clinical isolates after 18 to 20 hrs in aerobic condition by CLSI-based broth microdilution assay; assay type: functional, Salmonella enterica subsp. enterica serovar Enteritidis; settings: Salmonella enterica
Staphylococcus aureus [4] = test: Antibacterial activity against Methicillin-sensitive Staphylococcus aureus NRS107 clinical isolates after 18 to 20 hrs in aerobic condition by CLSI protocol based broth microdilution assay; assay type: functional
Acinetobacter baumannii [5] = test: Antibacterial activity against Acinetobacter baumannii NR 17786 clinical isolates after 18 to 20 hrs in aerobic condition by CLSI-based broth microdilution assay; assay type: functional
Escherichia coli [6] = test: Antibacterial activity against carbapenem-resistant Escherichia coli BAA-2469 clinical isolates after 18 to 20 hrs in aerobic condition by CLSI-based broth microdilution assay; assay type: functional
Staphylococcus aureus [7] = test: Antibacterial activity against vancomycin-resistant Staphylococcus aureus isolate 12 after 18 to 20 hrs in aerobic condition by CLSI-based broth microdilution assay; assay type: functional
Escherichia coli [8] = test: Antibacterial activity against carbapenem-resistant Escherichia coli BAA-2452 clinical isolates after 18 to 20 hrs in aerobic condition by CLSI-based broth microdilution assay; assay type: functional
Klebsiella pneumoniae [9] = test: Antibacterial activity against carbapenem-resistant Klebsiella pneumoniae ATCC BAA-1705 clinical isolates after 18 to 20 hrs in aerobic condition by CLSI-based broth microdilution assay; assay type: functional
Acinetobacter baumannii [10] = test: Ratio of MBC to MIC for Acinetobacter baumannii NR 17785 clinical isolates; assay type: functional
Shigella flexneri [11] = test: Ratio of MBC to MIC for Shigella flexneri ATCC 9199 clinical isolates; assay type: functional
Escherichia coli [12] = test: microbe, parasite or virus in culture; settings: ATCC 1411
Description: Antibacterial activity against Escherichia coli ATCC 1411 clinical isolates after 18 to 20 hrs in aerobic condition by CLSI-based broth microdilution assay

Salmonella enteritidis [13] = test: Ratio of MBC to MIC for Salmonella enteritidis ATCC 13076 clinical isolates; assay type: functional, Salmonella enterica subsp. enterica serovar Enteritidis
Clostridioides difficile [14] = test: Antibacterial activity against Clostridium difficile ATCC BAA 1870 incubated for 48 hrs in anaerobic condition by CLSI-based broth microdilution assay; assay type: functional; settings: ATCC BAA 1870, 48 h
Pseudomonas aeruginosa [15] = test: Ratio of MBC to MIC for Pseudomonas aeruginosa ATCC 25619 clinical isolates; assay type: functional
Klebsiella pneumoniae [16] = test: Antibacterial activity against Klebsiella pneumoniae BAA-1144 clinical isolates after 18 to 20 hrs in aerobic condition by CLSI-based broth microdilution assay; assay type: functional
Salmonella typhimurium = test: Ratio of MBC to MIC for Salmonella typhimurium ATCC 700720 clinical isolates; assay type: functional, Salmonella enterica subsp. enterica serovar Typhimurium
Pseudomonas aeruginosa [17] = test: Ratio of MBC to MIC for Pseudomonas aeruginosa ATCC 9027 clinical isolates; assay type: functional
Streptococcus pneumoniae = test: Antibacterial activity against methicillin-resistant Streptococcus pneumoniae ATCC 700677 clinical isolates after 18 to 20 hrs by CLSI-based broth microdilution assay; assay type: functional
Klebsiella pneumoniae [18] = test: Antibacterial activity against carbapenem-resistant Klebsiella pneumoniae ATCC BAA-2146 clinical isolates after 18 to 20 hrs in aerobic condition by CLSI-based broth microdilution assay; assay type: functional
Pseudomonas aeruginosa [19] = test: Antibacterial activity against carbapenem-resistant Pseudomonas aeruginosa ATCC 1744 clinical isolates after 18 to 20 hrs in aerobic condition by CLSI-based broth microdilution assay; assay type: functional
Escherichia coli [20] = test: Antimicrobial activity against Escherichia coli JW55031 harboring deltatolC mutant after 18 to 20 hrs in aerobic condition by CLSI protocol based broth microdilution assay; assay type: functional
Enterococcus faecium [21] = test: Ratio of MBC to MIC for vancomycin-resistant Enterococcus faecium ATCC 700221 clinical isolates; assay type: functional
Shigella flexneri [22] = test: Antibacterial activity against Shigella flexneri ATCC 9199 clinical isolates after 18 to 20 hrs in aerobic condition by CLSI-based broth microdilution assay; assay type: functional
Staphylococcus aureus [23] = test: Antibacterial activity against vancomycin-resistant Staphylococcus aureus isolate 10 after 18 to 20 hrs in aerobic condition by CLSI-based broth microdilution assay; assay type: functional
Klebsiella pneumoniae [24] = test: Antibacterial activity against Klebsiella pneumoniae BAA-1706 clinical isolates after 18 to 20 hrs in aerobic condition by CLSI-based broth microdilution assay; assay type: functional
Acinetobacter baumannii [25] = test: Antibacterial activity against Acinetobacter baumannii NR 17785 clinical isolates after 18 to 20 hrs in aerobic condition by CLSI-based broth microdilution assay; assay type: functional
Pseudomonas aeruginosa [26] = test: Ratio of MBC to MIC for Pseudomonas aeruginosa ATCC 15442 clinical isolates; assay type: functional
Escherichia coli [27] = test: Ratio of MBC to MIC for Escherichia coli BW25113 clinical isolates; assay type: functional
Acinetobacter baumannii [28] = test: Ratio of MBC to MIC for Acinetobacter baumannii ATCC BAA 1747 clinical isolates; assay type: functional
Acinetobacter baumannii [29] = test: Ratio of MBC to MIC for Acinetobacter baumannii ATCC BAA 1141 clinical isolates; assay type: functional
Klebsiella pneumoniae [30] = test: Ratio of MBC to MIC for Klebsiella pneumoniae BAA-1706 after 18 to 20 hrs in aerobic condition by CLSI-based broth microdilution assay; assay type: functional
Acinetobacter baumannii [31] = test: microbe, parasite or virus in culture; settings: ATCC BAA 1747
Description: Antibacterial activity against Acinetobacter baumannii ATCC BAA 1747 after 18 to 20 hrs in aerobic condition by CLSI-based broth microdilution assay

Staphylococcus aureus [32] = test: Ratio of MBC to MIC for Methicillin-sensitive Staphylococcus aureus ATCC 6538 clinical isolates; assay type: functional
Staphylococcus aureus [33] = test: Antibacterial activity against Methicillin-resistant Staphylococcus aureus NRS123-USA400 clinical isolates after 18 to 20 hrs in aerobic condition by CLSI protocol based broth microdilution assay; assay type: functional
Staphylococcus aureus [34] = test: Antibacterial activity against linezolid-resistant/Methicillin-resistant Staphylococcus aureus NRS119 clinical isolates after 18 to 20 hrs in aerobic condition by CLSI protocol based broth microdilution assay; assay type: functional
Acinetobacter baumannii [35] = test: Antibacterial activity against Acinetobacter baumannii ATCC BAA 1141 clinical isolates after 18 to 20 hrs in aerobic condition by CLSI-based broth microdilution assay; assay type: functional
Staphylococcus aureus [36] = test: Bactericidal activity against methicillin-resistant Staphylococcus aureus NRS123-USA400 clinical isolates at 5 times MIC incubated over 24 hrs followed by replating on tryptic soy agar plate and further incubated for 18 to 20 hrs by time kill assay; assay type: functional, organism-based
Staphylococcus aureus [37] = test: Ratio of MBC to MIC for Methicillin-sensitive Staphylococcus aureus NRS107 clinical isolates; assay type: functional
Salmonella enteritidis [38] = test: Ratio of MBC to MIC for Salmonella enteritidis ATCC 14028 clinical isolates; assay type: functional, Salmonella enterica subsp. enterica serovar Enteritidis
[39] = system: Enterobacter cloacae subsp. cloacae; test: Ratio of MBC to MIC for Enterobacter cloacae subsp. cloacae ATCC BAA-1143 clinical isolates; assay type: functional
Enterococcus faecium [40] = test: Antibacterial activity against vancomycin-resistant Enterococcus faecium ATCC 700221 clinical isolates after 18 to 20 hrs in aerobic condition by CLSI-based broth microdilution assay; assay type: functional
Salmonella enteritidis [41] = test: Antibacterial activity against Salmonella enteritidis ATCC 14028 clinical isolates after 18 to 20 hrs in aerobic condition by CLSI-based broth microdilution assay; assay type: functional, Salmonella enterica subsp. enterica serovar Enteritidis; settings: Salmonella enterica
Clostridioides difficile [42] = test: Ratio of MBC to MIC for Clostridium difficile ATCC BAA 1870; assay type: functional
Acinetobacter baumannii [43] = test: Ratio of MBC to MIC for Acinetobacter baumannii ATCC 19606 clinical isolates; assay type: functional, ATCC 19606 = CIP 70.34 = JCM 6841

C/C(=N\NC(=N)N)c1cnn(-c2ccc(C#Cc3ccccc3)cc2)c1C
MIC (Pseudomonas aeruginosa [1]): 32 µg/mL (≈ 89.8 µM) | MIC (Pseudomonas aeruginosa [2]): 32 µg/mL (≈ 89.8 µM) | MIC (Salmonella enteritidis [3]): 8 µg/mL (≈ 22.4 µM) | MIC (Staphylococcus aureus [4]): 2 µg/mL (≈ 5.61 µM) | MIC (Acinetobacter baumannii [5]): 8 µg/mL (≈ 22.4 µM) | MIC (Escherichia coli [6]): 8 µg/mL (≈ 22.4 µM) | MIC (Staphylococcus aureus [7]): 2 µg/mL (≈ 5.61 µM) | MIC (Escherichia coli [8]): 8 µg/mL (≈ 22.4 µM) | MIC (Klebsiella pneumoniae [9]): 16 µg/mL (≈ 44.9 µM) | Ratio (Acinetobacter baumannii [10]): >=1 | Ratio (Shigella flexneri [11]): >=1 | MIC (Escherichia coli [12]): 8 µg/mL (≈ 22.4 µM) | Ratio (Salmonella enteritidis [13]): >=1 | MIC (Clostridioides difficile [14]): 4 µg/mL (≈ 11.2 µM) | Ratio (Pseudomonas aeruginosa [15]): >=1 | MIC (Klebsiella pneumoniae [16]): 8 µg/mL (≈ 22.4 µM) | Ratio (Salmonella typhimurium): >=1 | Ratio (Pseudomonas aeruginosa [17]): >=1 | MIC (Streptococcus pneumoniae): 2 µg/mL (≈ 5.61 µM) | MIC (Klebsiella pneumoniae [18]): 16 µg/mL (≈ 44.9 µM) | MIC (Pseudomonas aeruginosa [19]): 16 µg/mL (≈ 44.9 µM) | MIC (Escherichia coli [20]): 2 µg/mL (≈ 5.61 µM) | Ratio (Enterococcus faecium [21]): <3 | MIC (Shigella flexneri [22]): 8 µg/mL (≈ 22.4 µM) | MIC (Staphylococcus aureus [23]): 1 µg/mL (≈ 2.81 µM) | MIC (Klebsiella pneumoniae [24]): 8 µg/mL (≈ 22.4 µM) | MIC (Acinetobacter baumannii [25]): 4 µg/mL (≈ 11.2 µM) | Ratio (Pseudomonas aeruginosa [26]): >=1 | Ratio (Escherichia coli [27]): >=1 | Ratio (Acinetobacter baumannii [28]): >=1 | Ratio (Acinetobacter baumannii [29]): >=1 | Ratio (Klebsiella pneumoniae [30]): >=1 | MIC (Acinetobacter baumannii [31]): 4 µg/mL (≈ 11.2 µM) | Ratio (Staphylococcus aureus [32]): <=2 | MIC (Staphylococcus aureus [33]): 2 µg/mL (≈ 5.61 µM) | MIC (Staphylococcus aureus [34]): 1 µg/mL (≈ 2.81 µM) | MIC (Acinetobacter baumannii [35]): 4 µg/mL (≈ 11.2 µM) | Activity (Staphylococcus aureus [36]): Active | Ratio (Staphylococcus aureus [37]): <=2 | Ratio (Salmonella enteritidis [38]): >=1 | Ratio [39]: > 1 | MIC (Enterococcus faecium [40]): 1 µg/mL (≈ 2.81 µM) | MIC (Salmonella enteritidis [41]): 16 µg/mL (≈ 44.9 µM) | Ratio (Clostridioides difficile [42]): <3 | Ratio (Acinetobacter baumannii [43]): >=1

C/C(=N\NC(=N)N)c1cnn(-c2ccc(C#CC3CCCC3)cc2)c1C
MIC (Pseudomonas aeruginosa [1]): 32 µg/mL (≈ 91.8 µM) | MIC (Pseudomonas aeruginosa [2]): 16 µg/mL (≈ 45.9 µM) | MIC (Salmonella enteritidis [3]): 4 µg/mL (≈ 11.5 µM) | MIC (Staphylococcus aureus [4]): 1 µg/mL (≈ 2.87 µM) | MIC (Acinetobacter baumannii [5]): 8 µg/mL (≈ 23 µM) | MIC (Escherichia coli [6]): 4 µg/mL (≈ 11.5 µM) | MIC (Staphylococcus aureus [7]): 1 µg/mL (≈ 2.87 µM) | MIC (Escherichia coli [8]): 4 µg/mL (≈ 11.5 µM) | MIC (Klebsiella pneumoniae [9]): 8 µg/mL (≈ 23 µM) | Ratio (Acinetobacter baumannii [10]): >=1 | Ratio (Shigella flexneri [11]): >=1 | MIC (Escherichia coli [12]): 8 µg/mL (≈ 23 µM) | Ratio (Salmonella enteritidis [13]): >=1 | MIC (Clostridioides difficile [14]): 1 µg/mL (≈ 2.87 µM) | Ratio (Pseudomonas aeruginosa [15]): >=1 | MIC (Klebsiella pneumoniae [16]): 8 µg/mL (≈ 23 µM) | Ratio (Salmonella typhimurium): >=1 | Ratio (Pseudomonas aeruginosa [17]): >=1 | MIC (Streptococcus pneumoniae): 0.5 µg/mL (≈ 1.43 µM) | MIC (Klebsiella pneumoniae [18]): 16 µg/mL (≈ 45.9 µM) | MIC (Pseudomonas aeruginosa [19]): 16 µg/mL (≈ 45.9 µM) | MIC (Escherichia coli [20]): 2 µg/mL (≈ 5.74 µM) | Ratio (Enterococcus faecium [21]): <3 | MIC (Shigella flexneri [22]): 8 µg/mL (≈ 23 µM) | MIC (Staphylococcus aureus [23]): 0.5 µg/mL (≈ 1.43 µM) | MIC (Klebsiella pneumoniae [24]): 4 µg/mL (≈ 11.5 µM) | MIC (Acinetobacter baumannii [25]): 4 µg/mL (≈ 11.5 µM) | Ratio (Pseudomonas aeruginosa [26]): >=1 | Ratio (Escherichia coli [27]): >=1 | Ratio (Acinetobacter baumannii [28]): >=1 | Ratio (Acinetobacter baumannii [29]): >=1 | Ratio (Klebsiella pneumoniae [30]): >=1 | MIC (Acinetobacter baumannii [31]): 4 µg/mL (≈ 11.5 µM) | Ratio (Staphylococcus aureus [32]): <=2 | MIC (Staphylococcus aureus [33]): 2 µg/mL (≈ 5.74 µM) | MIC (Staphylococcus aureus [34]): 1 µg/mL (≈ 2.87 µM) | MIC (Acinetobacter baumannii [35]): 4 µg/mL (≈ 11.5 µM) | Activity (Staphylococcus aureus [36]): Active | Ratio (Staphylococcus aureus [37]): <=2 | Ratio (Salmonella enteritidis [38]): >=1 | Ratio [39]: > 1 | MIC (Enterococcus faecium [40]): 1 µg/mL (≈ 2.87 µM) | MIC (Salmonella enteritidis [41]): 8 µg/mL (≈ 23 µM) | Ratio (Clostridioides difficile [42]): <3 | Ratio (Acinetobacter baumannii [43]): >=1
